Results as given in patent US11939348B2, “Compositions comprising a phosphorus derivative of nicotinamide riboside and methods for modulation of nicotinamide adenine dinucleotide” (Metro International Biotech, LLC, priority 2019, dated 2024).

System: AML12 cells
Test: NAD(H) normalized to total protein in treated AML12 cells compared to untreated cells
Format: cell-based
Conditions: compound at 2 mM, 1 mM and 500 micromolar, untreated cells normalized to 1.0, FIG. 1
Excerpt: Compound A is Formula I, n=2. Compound B is Formula I, n=1.

Structure (SMILES): NC(=O)c1ccc[n+]([C@@H]2O[C@H](COP(=O)([O-])OP(=O)([O-])OCC3O[C@@H]([n+]4cccc(C(N)=O)c4)[C@H](O)[C@@H]3O)[C@@H](O)[C@H]2O)c1 (some centres unmarked) [Compound A]
- NAD(H) normalized to total protein in treated AML12 cells compared to untreated cells: possess NAD(H) boosting activity

Structure (SMILES): NC(=O)c1ccc[n+]([C@@H]2O[C@H](COP(=O)(O)OC[C@H]3O[C@@H]([n+]4cccc(C(N)=O)c4)[C@H](O)[C@@H]3O)[C@@H](O)[C@H]2O)c1 [Compound B, bis(((2R,3S,4R,5R)-5-(3-carbamoylpyridin-1-ium-1-yl)-3,4-dihydroxytetrahydrofuran-2-yl)methyl) phosphate acetate]
- NAD(H) normalized to total protein in treated AML12 cells compared to untreated cells: possess NAD(H) boosting activity
